What all share (assay): inhibition of tumour cell growth, NCI panel, 48 h
The subject of experiment [1] is NCI-H23.
The subject of experiment [2] is ACHN.
The test system of experiment [3] is UACC-257.
The test system of experiment [4] is A498.
Experiment [5] has as its system HOP-62.
Experiment [6] has as its system MDA-N.
For experiment [7], the system named is Malme-3M.
The subject of experiment [8] is M14.
Experiment [9] deals with MDA-MB-435.
Experiment [10] concerns MDA-MB-231.
In experiment [11] the test system is COLO 205.
Experiment [12] relates to OVCAR-4.
In experiment [13] the test system is HOP-92.
Experiment [14] deals with EKVX.
Experiment [15] concerns K562.
Experiment [16] deals with KM12.
The test system of experiment [17] is 786-0.
Experiment [18] relates to UACC-62.
The subject of experiment [19] is RXF 393.
Experiment [20] deals with SK-MEL-2.

SMILES strings stand for the structures.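 The compound was tested at five concentrations on cells cultured in 96-well plates, with a 48-hour exposure period. GI50 is the concentration that inhibits growth by half.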 Active and inactive are the calls of the source. No stated cut-off is given here; in the data, active = GI50 up to about 1.1 µM and inactive = higher.

As to `COC(=O)[C@]1(NC(=O)c2ccccc2)C[C@H]1C=O`, the GI50 in experiment [1] is > 100 µM (inactive); in [2], > 100 µM (inactive); in experiment [3], > 100 µM (inactive); in experiment [4], > 71.8 µM (inactive); in experiment [5] it was > 100 µM (inactive); in [6] it was > 100 µM (inactive). Also, the GI50 in experiment [7], in experiment [8], in experiment [9], in [10], in [11] and in experiment [12] was > 100 µM (inactive) throughout. Moreover, the GI50 in [13] was > 100 µM (inactive); in [14], > 100 µM (inactive); in experiment [15] it was > 100 µM (inactive); in [16] it was > 61.5 µM (inactive); in experiment [17], > 100 µM (inactive); in experiment [18], > 64.7 µM (inactive). In addition, the GI50 in experiment [19] and in [20] was > 100 µM (inactive) throughout.
Turning to `COc1ccc(/C=N/NC(=O)c2ccccc2Nc2ccccc2C(=O)N/N=C/c2ccc(OC)c(OC)c2)cc1OC`, the GI50 in experiment [1], in experiment [2], in [3], in experiment [4], in [5] and in experiment [6] was > 100 µM (inactive) throughout. The GI50 in experiment [7] is 51.5 µM (inactive); in experiment [8], 36.5 µM (inactive); in experiment [9] it was > 100 µM (inactive); in experiment [10] it was 29.6 µM (inactive); in [11], > 100 µM (inactive); in experiment [12], > 100 µM (inactive). The GI50 is 71.9 µM (inactive) in experiment [13]; > 100 µM (inactive) in experiment [14]; > 100 µM (inactive) in experiment [15]; > 100 µM (inactive) in experiment [16]; > 100 µM (inactive) in [17]; > 100 µM (inactive) in experiment [18]. In addition, the GI50 in [19] and in experiment [20] was > 100 µM (inactive) each time.
As to `CCCCCCC(C)c1ccc2c(c1)C(=O)c1nc3ccncc3c(=O)n1-2` (stereo not given), the GI50 in [1] was 2.14 µM (inactive); in experiment [2], 3.33 µM (inactive); in [3], 2.84 µM (inactive); in experiment [4], 4.32 µM (inactive); in experiment [5], 5.13 µM (inactive); in experiment [6], 0.237 µM (active). Moreover, the GI50 in experiment [7] was 0.235 µM (active); in experiment [8], 2.94 µM (inactive); in experiment [9] it was 0.352 µM (active); in experiment [10] it was 2.54 µM (inactive); in experiment [11] it was 2.87 µM (inactive); in experiment [12] it was 1.66 µM (inactive). Further, the GI50 in experiment [13] was 78.3 µM (inactive); in [14] it was 4.25 µM (inactive); in [15], 0.419 µM (active); in [16] it was 1.79 µM (inactive); in [17], 2.29 µM (inactive); in experiment [18] it was 2.29 µM (inactive). Besides, the GI50 in experiment [19] is 4.06 µM (inactive); in experiment [20], 3.61 µM (inactive).
In the case of `C[N+](C)(C)C(C1=CCCC1=O)c1ccccc1` (stereo not given), the GI50 in experiment [1] is 45.2 µM (inactive); in experiment [2], 25.4 µM (inactive); in [3] it was 22.8 µM (inactive); in experiment [4] it was > 100 µM (inactive); in experiment [5], 24.8 µM (inactive); in experiment [6], 33.4 µM (inactive). Besides, the GI50 in [7] is 19.2 µM (inactive); in [8], > 100 µM (inactive); in experiment [9], 26.2 µM (inactive); in [10], 29 µM (inactive); in [11], > 100 µM (inactive); in experiment [12], 80.7 µM (inactive). For the same compound, the GI50 in experiment [13] was 26.4 µM (inactive); in experiment [14], > 100 µM (inactive); in experiment [15], 32.4 µM (inactive); in [16], 19 µM (inactive); in experiment [17] it was 19.7 µM (inactive); in experiment [18] it was 18.3 µM (inactive). Besides, the GI50 in [19] is 21 µM (inactive); in experiment [20] it was 84.9 µM (inactive).
For `N#Cc1ccccc1-c1nc2c3c(c(N)ccc3n1)C(=O)c1ccccc1-2`, the GI50 in experiment [1] was 88.7 µM (inactive); in experiment [2], 22.2 µM (inactive); in experiment [3], > 100 µM (inactive); in experiment [4], 43.6 µM (inactive); in [5] it was 18.1 µM (inactive); in experiment [6], > 100 µM (inactive). Moreover, the GI50 in experiment [7] was > 100 µM (inactive); in [8], 23.1 µM (inactive); in [9], 76.2 µM (inactive); in [10] it was 10.3 µM (inactive); in experiment [11], 26.4 µM (inactive); in [12], 71 µM (inactive). In addition, the GI50 was > 100 µM (inactive) in [13]; 30.3 µM (inactive) in experiment [14]; 43.5 µM (inactive) in experiment [15]; 11.5 µM (inactive) in [16]; 33 µM (inactive) in [17]; 64.6 µM (inactive) in [18]. Moreover, the GI50 was 18 µM (inactive) in experiment [19] and 47 µM (inactive) in experiment [20].
Consider `O=C(O)c1ccc2c(c1C(=O)O)C(=O)OC2(c1ccc(O)cc1)c1ccc(O)cc1`, for which the GI50 in experiment [1], in experiment [2], in [3], in [4], in experiment [5] and in experiment [6] was > 100 µM (inactive) each time. Moreover, the GI50 in [7], in experiment [8], in [9], in experiment [10], in experiment [11] and in experiment [12] was > 100 µM (inactive) each time. For the same compound, the GI50 in experiment [13], in experiment [14], in [15], in experiment [16], in experiment [17] and in experiment [18] was > 100 µM (inactive) throughout. The GI50 in experiment [19] and in experiment [20] was > 100 µM (inactive) each time.
Regarding `Cc1cc(N)ccc1C=O`, the GI50 in [1], in [2], in experiment [3], in [4], in experiment [5] and in experiment [6] was > 100 µM (inactive) in each case. Also, the GI50 in experiment [7], in experiment [8], in experiment [9], in experiment [10], in [11] and in experiment [12] was > 100 µM (inactive) in each case. Moreover, the GI50 in experiment [13], in [14], in experiment [15], in experiment [16], in experiment [17] and in [18] was > 100 µM (inactive) in each case. The GI50 in [19] and in [20] was > 100 µM (inactive) in each case.
Consider `CCN(Cc1cc(Cl)cc(C)c1O)Cc1c(O)ccc2ccccc12`, for which the GI50 in experiment [1] is 15.6 µM (inactive); in [2], 17.3 µM (inactive); in experiment [3] it was 15.8 µM (inactive); in [4] it was 18.7 µM (inactive); in [5] it was 12.5 µM (inactive); in experiment [6] it was 18.1 µM (inactive). Moreover, the GI50 in [7] was 14.5 µM (inactive); in experiment [8], 18.4 µM (inactive); in experiment [9], 15.8 µM (inactive); in [10] it was 18.4 µM (inactive); in experiment [11], 22.7 µM (inactive); in [12], 17.1 µM (inactive). In addition, the GI50 was 11.2 µM (inactive) in experiment [13]; 17.3 µM (inactive) in experiment [14]; 19.1 µM (inactive) in [15]; 17.3 µM (inactive) in experiment [16]; 16.8 µM (inactive) in experiment [17]; 15.7 µM (inactive) in experiment [18]. Moreover, the GI50 in [19] and in experiment [20] was 16.4 µM (inactive) in each case.
As to `CC(C)(C)N1C(=O)c2ccccc2C1(O)C(F)(F)F` (stereo not given), the GI50 was > 100 µM (inactive) in experiment [1]; > 100 µM (inactive) in experiment [2]; > 100 µM (inactive) in experiment [3]; > 100 µM (inactive) in [4]; > 100 µM (inactive) in experiment [5]; 84.9 µM (inactive) in experiment [6]. The GI50 in experiment [7] was 38 µM (inactive); in [8] it was > 100 µM (inactive); in [9] it was > 100 µM (inactive); in experiment [10], > 100 µM (inactive); in experiment [11], > 100 µM (inactive); in experiment [12], > 100 µM (inactive). Moreover, the GI50 was > 100 µM (inactive) in [13]; 64 µM (inactive) in experiment [14]; 20.5 µM (inactive) in [15]; > 100 µM (inactive) in [16]; > 100 µM (inactive) in [17]; > 100 µM (inactive) in experiment [18]. The GI50 in experiment [19] and in [20] was > 100 µM (inactive) throughout.
Regarding `Cc1cc(C)c2c(SCc3ccc(Cl)cc3Cl)nc(N)nc2n1`, the GI50 in experiment [1] is > 100 µM (inactive); in experiment [2], 57.5 µM (inactive); in [3], 4.6 µM (inactive); in experiment [4], > 100 µM (inactive); in experiment [5], 37.4 µM (inactive); in experiment [6] it was > 100 µM (inactive). In addition, the GI50 is 32 µM (inactive) in [7]; 82.6 µM (inactive) in experiment [8]; 83 µM (inactive) in experiment [9]; > 100 µM (inactive) in [10]; 34.8 µM (inactive) in [11]; > 100 µM (inactive) in experiment [12]. Moreover, the GI50 is 15.9 µM (inactive) in experiment [13]; > 100 µM (inactive) in experiment [14]; 22.7 µM (inactive) in experiment [15]; > 100 µM (inactive) in [16]; 17.1 µM (inactive) in [17]; > 100 µM (inactive) in experiment [18]. Moreover, the GI50 in experiment [19] was > 100 µM (inactive); in [20], 50.1 µM (inactive).

The values above are taken from ChEMBL document CHEMBL1201862, “PubChem BioAssay data set” (2004).
